# Measurements reported in patent US10597388B2, “Pyridazinone herbicides” (FMC CORPORATION, priority 2014, dated 2020).
# Like-named read-outs stand apart in the source and are kept apart here.
# What was measured:
# Test in all cases: Test A greenhouse herbicide test, pre- and postemergence
# Type in all cases: in vivo
# [1] = system: barnyardgrass (Echinochloa crus-galli); conditions: for pest or weed control at 125 g/ha / pest or weed control at 500 g/ha: Echinochloa crus-galli, 240 h
# In short: (§1)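 Seeds in loam–sand blend received a preemergence directed soil spray; plants at 2–10 cm, one- to two-leaf stage, received postemergence sprays. Compounds in a non-phytotoxic solvent with surfactant. After about 10 d in a greenhouse, injury rated visually versus untreated controls on a 0–100 scale (100 = complete control).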
# [2] = system: corn (Zea mays); conditions: Postemergence
# In short: as §1
# [3] = system: foxtail, giant (giant foxtail, Setaria faberii); conditions: for pest or weed control at 125 g/ha / pest or weed control at 500 g/ha: Setaria faberi, 240 h
# In short: as §1
# [4] = system: kochia (Kochia scoparia); conditions: for pest or weed control at 125 g/ha / pest or weed control at 500 g/ha: Bassia scoparia, 240 h
# In short: as §1
# [5] = system: pigweed (Amaranthus retroflexus); conditions: for pest or weed control at 125 g/ha / pest or weed control at 500 g/ha: Amaranthus retroflexus, 240 h
# In short: as §1
# [6] = system: ragweed (common ragweed, Ambrosia elatior); conditions: for pest or weed control at 125 g/ha / pest or weed control at 500 g/ha: Ambrosia artemisiifolia, 240 h
# In short: as §1
# [7] = system: ryegrass, Italian (Italian ryegrass, Lolium multiflorum); conditions: for pest or weed control at 125 g/ha / pest or weed control at 500 g/ha: Lolium multiflorum, 240 h
# In short: as §1
# [8] = system: wheat (Triticum aestivum); conditions: Postemergence; for Plant response rating, Wheat: 0 to 100 scale where 0 is no effect and 100 is complete control
# In short: as §1
# [9] = Postemergence, 125 g ai/ha, visual rating after approx. 10 d, 0 to 100 scale (0 no effect, 100 complete control)
# [10] = Postemergence, 500 g ai/ha, 0 to 100 scale, 0 is no effect, 100 is complete control
# [11] = Preemergence, 125 g ai/ha, 0 to 100 scale where 0 is no effect and 100 is complete control
# [12] = Preemergence, 500 g ai/ha, 0 to 100 scale, 0 no effect, 100 complete control
# [13] = 125 g ai/ha, visual rating after approx. 10 d, 0 to 100 scale (0 no effect, 100 complete control)
# [14] = 500 g ai/ha, 0 to 100 scale, 0 is no effect, 100 is complete control
# [15] = Postemergence, 125 g ai/ha, 0 to 100 scale where 0 is no effect and 100 is complete control
structure (smiles),measurement,setting,value
"Cc1cc(C)c2oc(C)c(-c3c(OC(=O)C(C)(C)C)c(C)nn(C)c3=O)c2c1 [Compound 18, 1,6-dihydro-1,3-dimethyl-6-oxo-5-(2,5,7-trimethyl-3-benzofuranyl)-4-pyridazinyl 2,2-dimethylpropanoate]",pest or weed control at 125 g/ha,"[1]; post-emergence, Postemergence, 125 g ai/ha, visual rating after approx. 10 d, 0 to 100 scale (0 no effect, 100 complete control), read-out: Plant response rating, Barnyardgrass",0%
same,pest or weed control at 500 g/ha,"[1]; post-emergence, Postemergence, 500 g ai/ha, 0 to 100 scale, 0 is no effect, 100 is complete control, read-out: Barnyardgrass plant response rating",40%
same,pest or weed control at 125 g/ha,"[1]; pre-emergence, Preemergence, 125 g ai/ha, 0 to 100 scale where 0 is no effect and 100 is complete control, read-out: Barnyardgrass plant response rating",0%
same,pest or weed control at 500 g/ha,"[1]; pre-emergence, Preemergence, 500 g ai/ha, 0 to 100 scale, 0 no effect, 100 complete control, read-out: Plant response rating, Barnyardgrass",0%
same,"Corn plant response rating (crop injury, 0 = no effect, 100 = complete kill) at 125 g/ha","[2]; Zea mays, post-emergence, 240 h, 125 g ai/ha, visual rating after approx. 10 d, 0 to 100 scale (0 no effect, 100 complete control)",0%
same,plant injury at 500 g/ha,"[2]; Zea mays, post-emergence, 240 h, 500 g ai/ha, 0 to 100 scale, 0 is no effect, 100 is complete control, read-out: Corn plant response rating",20%
same,pest or weed control at 125 g/ha,"[3]; post-emergence, Postemergence, 125 g ai/ha, visual rating after approx. 10 d, 0 to 100 scale (0 no effect, 100 complete control), read-out: Plant response rating, Foxtail, Giant",0%
same,pest or weed control at 500 g/ha,"[3]; post-emergence, Postemergence, 500 g ai/ha, 0 to 100 scale, 0 is no effect, 100 is complete control, read-out: Foxtail, Giant plant response rating",20%
same,pest or weed control at 125 g/ha,"[3]; pre-emergence, Preemergence, 125 g ai/ha, 0 to 100 scale where 0 is no effect and 100 is complete control, read-out: Foxtail, Giant plant response rating",0%
same,pest or weed control at 500 g/ha,"[3]; pre-emergence, Preemergence, 500 g ai/ha, 0 to 100 scale, 0 no effect, 100 complete control, read-out: Plant response rating, Foxtail, Giant",0%
same,pest or weed control at 125 g/ha,"[4]; post-emergence, Postemergence, 125 g ai/ha, visual rating after approx. 10 d, 0 to 100 scale (0 no effect, 100 complete control), read-out: Plant response rating, Kochia",0%
same,pest or weed control at 500 g/ha,"[4]; post-emergence, Postemergence, 500 g ai/ha, 0 to 100 scale, 0 is no effect, 100 is complete control, read-out: Kochia plant response rating",0%
same,pest or weed control at 125 g/ha,"[4]; pre-emergence, Preemergence, 125 g ai/ha, 0 to 100 scale where 0 is no effect and 100 is complete control, read-out: Kochia plant response rating",0%
same,pest or weed control at 500 g/ha,"[4]; pre-emergence, Preemergence, 500 g ai/ha, 0 to 100 scale, 0 no effect, 100 complete control, read-out: Plant response rating, Kochia",0%
same,pest or weed control at 125 g/ha,"[5]; post-emergence, Postemergence, 125 g ai/ha, visual rating after approx. 10 d, 0 to 100 scale (0 no effect, 100 complete control), read-out: Plant response rating, Pigweed",0%
same,pest or weed control at 500 g/ha,"[5]; post-emergence, Postemergence, 500 g ai/ha, 0 to 100 scale, 0 is no effect, 100 is complete control, read-out: Pigweed plant response rating",0%
same,pest or weed control at 125 g/ha,"[5]; pre-emergence, Preemergence, 125 g ai/ha, 0 to 100 scale where 0 is no effect and 100 is complete control, read-out: Pigweed plant response rating",0%
same,pest or weed control at 500 g/ha,"[5]; pre-emergence, Preemergence, 500 g ai/ha, 0 to 100 scale, 0 no effect, 100 complete control, read-out: Plant response rating, Pigweed",0%
same,pest or weed control at 125 g/ha,"[6]; post-emergence, Postemergence, 125 g ai/ha, visual rating after approx. 10 d, 0 to 100 scale (0 no effect, 100 complete control), read-out: Plant response rating, Ragweed",0%
same,pest or weed control at 500 g/ha,"[6]; post-emergence, Postemergence, 500 g ai/ha, 0 to 100 scale, 0 is no effect, 100 is complete control, read-out: Ragweed plant response rating",0%
same,pest or weed control at 125 g/ha,"[6]; pre-emergence, Preemergence, 125 g ai/ha, 0 to 100 scale where 0 is no effect and 100 is complete control, read-out: Ragweed plant response rating",0%
same,pest or weed control at 500 g/ha,"[6]; pre-emergence, Preemergence, 500 g ai/ha, 0 to 100 scale, 0 no effect, 100 complete control, read-out: Plant response rating, Ragweed",0%
same,pest or weed control at 125 g/ha,"[7]; post-emergence, Postemergence, 125 g ai/ha, visual rating after approx. 10 d, 0 to 100 scale (0 no effect, 100 complete control), read-out: Plant response rating, Ryegrass, Italian",10%
same,pest or weed control at 500 g/ha,"[7]; post-emergence, Postemergence, 500 g ai/ha, 0 to 100 scale, 0 is no effect, 100 is complete control, read-out: Ryegrass, Italian plant response rating",50%
same,pest or weed control at 125 g/ha,"[7]; pre-emergence, Preemergence, 125 g ai/ha, 0 to 100 scale where 0 is no effect and 100 is complete control, read-out: Ryegrass, Italian plant response rating",0%
same,pest or weed control at 500 g/ha,"[7]; pre-emergence, Preemergence, 500 g ai/ha, 0 to 100 scale, 0 no effect, 100 complete control, read-out: Plant response rating, Ryegrass, Italian",20%
same,plant injury at 125 g/ha,"[8]; Triticum aestivum, post-emergence, 240 h, 125 g ai/ha, visual rating after approx. 10 d, 0 to 100 scale (0 no effect, 100 complete control), read-out: Plant response rating, Wheat",0%
same,plant injury at 500 g/ha,"[8]; Triticum aestivum, post-emergence, 240 h, 500 g ai/ha, 0 to 100 scale, 0 is no effect, 100 is complete control, read-out: Wheat plant response rating",0%
Cc1ccc2sc(C)c(-c3c(OC(=O)C(C)(C)C)c(C)nn(C)c3=O)c2c1 [Compound 26],"Plant response rating, Barnyardgrass",[1]; [9],10
same,Barnyardgrass plant response rating,[1]; [10],30
same,Barnyardgrass plant response rating,[1]; [11],0
same,"Plant response rating, Barnyardgrass",[1]; [12],10
same,"Plant response rating, Corn",[2]; [13],0
same,Corn plant response rating,[2]; [14],0
same,"Plant response rating, Foxtail, Giant",[3]; [9],10
same,"Foxtail, Giant plant response rating",[3]; [10],60
same,"Foxtail, Giant plant response rating",[3]; [11],30
same,"Plant response rating, Foxtail, Giant",[3]; [12],50
same,"Plant response rating, Kochia",[4]; [9],80
same,Kochia plant response rating,[4]; [10],90
same,Kochia plant response rating,[4]; [11],30
same,"Plant response rating, Kochia",[4]; [12],30
same,"Plant response rating, Pigweed",[5]; [9],80
same,Pigweed plant response rating,[5]; [10],90
same,Pigweed plant response rating,[5]; [11],80
same,"Plant response rating, Pigweed",[5]; [12],100
same,"Plant response rating, Ragweed",[6]; [9],60
same,Ragweed plant response rating,[6]; [10],90
same,Ragweed plant response rating,[6]; [11],20
same,"Plant response rating, Ragweed",[6]; [12],40
same,"Plant response rating, Ryegrass, Italian",[7]; [15],60
same,"Ryegrass, Italian plant response rating",[7]; [10],90
same,"Ryegrass, Italian plant response rating",[7]; [11],30
same,"Plant response rating, Ryegrass, Italian",[7]; [12],70
same,"Plant response rating, Wheat",[8]; 125 g ai/ha,0
same,Wheat plant response rating,[8]; [14],0
Cc1ccc2ccccc2c1-c1c(O)c(I)nn(C)c1=O [Compound 29],"Plant response rating, Barnyardgrass",[1]; [9],70
same,Barnyardgrass plant response rating,[1]; [10],80
same,Barnyardgrass plant response rating,[1]; [11],70
same,"Plant response rating, Barnyardgrass",[1]; [12],90
same,"Plant response rating, Corn",[2]; [13],10
same,Corn plant response rating,[2]; [14],40
same,"Plant response rating, Foxtail, Giant",[3]; [9],80
same,"Foxtail, Giant plant response rating",[3]; [10],90
same,"Foxtail, Giant plant response rating",[3]; [11],80
same,"Plant response rating, Foxtail, Giant",[3]; [12],90
same,"Plant response rating, Kochia",[4]; [9],80
same,Kochia plant response rating,[4]; [10],90
same,Kochia plant response rating,[4]; [11],60
same,"Plant response rating, Kochia",[4]; [12],100
same,"Plant response rating, Pigweed",[5]; [9],90
same,Pigweed plant response rating,[5]; [10],100
same,Pigweed plant response rating,[5]; [11],100
same,"Plant response rating, Pigweed",[5]; [12],100
same,"Plant response rating, Ragweed",[6]; [9],90
same,Ragweed plant response rating,[6]; [10],100
same,Ragweed plant response rating,[6]; [11],90
same,"Plant response rating, Ragweed",[6]; [12],90
same,"Plant response rating, Ryegrass, Italian",[7]; [15],90
same,"Ryegrass, Italian plant response rating",[7]; [10],100
same,"Ryegrass, Italian plant response rating",[7]; [11],80
same,"Plant response rating, Ryegrass, Italian",[7]; [12],90
same,"Plant response rating, Wheat",[8]; 125 g ai/ha,40
same,Wheat plant response rating,[8]; [14],60
